Measurements: PubChem BioAssay AID248 (DTP/NCI, 2004)
Where “and” joins values, the source holds several entries; their conditions need not be identical. Identical values can stand only once. Toxic doses and inconclusive results are not listed. No stated cut-off is given here; in the data, active means T/C of 150% or more; inactive means T/C below 125%.

System: L1210 leukemia ip in BDF1 mice, survival T/C
Assay: NCI In Vivo Anticancer Drug Screen. Data for tumor model L1210 Leukemia (intraperitoneal) in B6D2F1 (BDF1) mice
Settings: endpoint: mean survival time, higher = longer survival
Summary of the method: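 Transplanted-tumor mice were given test agent; controls received vehicle only. Survival readings from the two groups were divided (treated over control).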

[1] = dose: 100.0 mg/kg/injection, schedule: Q04DX003 (ip), vehicle: saline with Tween-80
[2] = dose: 200.0 mg/kg/injection, schedule: Q04DX003 (ip), vehicle: saline with Tween-80
[3] = dose: 400.0 mg/kg/injection, schedule: Q04DX003 (ip), vehicle: saline with Tween-80
[4] = dose: 100.0 mg/kg/injection, schedule: Q01DX001 (ip), vehicle: saline
[5] = dose: 200.0 mg/kg/injection, schedule: Q04DX003 (ip), vehicle: saline
[6] = dose: 100.0 mg/kg/injection, schedule: Q04DX002 (ip), vehicle: Klucel (hydroxypropylcellulose) (HPC)
[7] = dose: 200.0 mg/kg/injection, schedule: Q04DX002 (ip), vehicle: Klucel (hydroxypropylcellulose) (HPC)
[8] = dose: 400.0 mg/kg/injection, schedule: Q04DX002 (ip), vehicle: Klucel (hydroxypropylcellulose) (HPC)
[9] = dose: 200.0 mg/kg/injection, schedule: Q01DX001 (ip), vehicle: saline
[10] = dose: 400.0 mg/kg/injection, schedule: Q01DX001 (ip), vehicle: saline
[11] = dose: 100.0 mg/kg/injection, schedule: Q01DX009 (ip), vehicle: saline with Tween-80
[12] = dose: 200.0 mg/kg/injection, schedule: Q01DX009 (ip), vehicle: saline with Tween-80
[13] = dose: 100.0 mg/kg/injection, schedule: Q04DX002 (ip), vehicle: saline with Tween-80

Measured: T/C

CC1CCC(Oc2nc3c(c(=O)n(C)c(=O)n3C)n2C)CC1 (centres undefined)
inactive: dose: 50.0 mg/kg/injection, schedule: Q01DX001 (ip), vehicle: other 104 % of control and 100 % of control | dose: 100.0 mg/kg/injection, schedule: Q01DX001 (ip), vehicle: other 101 % of control and 103 % of control | dose: 200.0 mg/kg/injection, schedule: Q01DX001 (ip), vehicle: other 101 % of control and 92 % of control | dose: 400.0 mg/kg/injection, schedule: Q01DX001 (ip), vehicle: other 95 % of control

O=C(O)c1cccnc1Br
inactive: [1] 105 % of control | [2] 101 % of control | [3] 100 % of control

c1nnc(NCNc2nncs2)s1
inactive: dose: 2.6 mg/kg/injection, schedule: Q01DX009 (ip), vehicle: Klucel (hydroxypropylcellulose) (HPC) 115 % of control | dose: 6.0 mg/kg/injection, schedule: Q01DX009 (ip), vehicle: Klucel (hydroxypropylcellulose) (HPC) 124 % of control | dose: 7.5 mg/kg/injection, schedule: Q01DX009 (ip), vehicle: saline 122 % of control | dose: 12.0 mg/kg/injection, schedule: Q04DX003 (ip), vehicle: Klucel (hydroxypropylcellulose) (HPC) 121 % of control | dose: 15.0 mg/kg/injection, schedule: Q01DX009 (ip), vehicle: saline 120 % of control | dose: 18.0 mg/kg/injection, schedule: Q04DX003 (ip), vehicle: Klucel (hydroxypropylcellulose) (HPC) 122 % of control | dose: 20.0 mg/kg/injection, schedule: Q01DX009 (ip), vehicle: Klucel (hydroxypropylcellulose) (HPC) 109 % of control | dose: 30.0 mg/kg/injection, schedule: Q01DX009 (ip), vehicle: Klucel (hydroxypropylcellulose) (HPC) 95 % of control | dose: 45.0 mg/kg/injection, schedule: Q01DX009 (ip), vehicle: Klucel (hydroxypropylcellulose) (HPC) 87 % of control | dose: 45.0 mg/kg/injection, schedule: Q01DX009 (ip), vehicle: saline 114 % of control | dose: 50.0 mg/kg/injection, schedule: Q01DX001 (ip), vehicle: saline 110 % of control | dose: 50.0 mg/kg/injection, schedule: Q04DX003 (ip), vehicle: saline 111 % of control | dose: 60.0 mg/kg/injection, schedule: Q01DX009 (ip), vehicle: saline 115 % of control | [4] 117 % of control | dose: 300.0 mg/kg/injection, schedule: Q04DX003 (ip), vehicle: Klucel (hydroxypropylcellulose) (HPC) 106 % of control | dose: 300.0 mg/kg/injection, schedule: Q04DX003 (ip), vehicle: saline 113 % of control
active: dose: 19.0 mg/kg/injection, schedule: Q01DX009 (ip), vehicle: saline 154 % of control | dose: 30.0 mg/kg/injection, schedule: Q01DX009 (ip), vehicle: saline 166 % of control | [5] 167 % of control and 168 % of control

COC1(OC)C2CCC1C(OS(=O)(=O)c1ccc(C)cc1)C2 (centres undefined)
inactive: [6] 103 % of control | [7] 106 % of control | [8] 100 % of control

Cc1cc(Cl)cc2sc(=S)[nH]c12
inactive: dose: 100.0 mg/kg/injection, schedule: Q01DX009 (ip), vehicle: Klucel (hydroxypropylcellulose) (HPC) 96 % of control and 108 % of control | [6] 110 % of control | dose: 200.0 mg/kg/injection, schedule: Q01DX009 (ip), vehicle: Klucel (hydroxypropylcellulose) (HPC) 86 % of control and 92 % of control | [7] 110 % of control | dose: 400.0 mg/kg/injection, schedule: Q01DX009 (ip), vehicle: Klucel (hydroxypropylcellulose) (HPC) 87 % of control | [8] 110 % of control

COc1c2occc2c(OC)c2c(=O)cc(/C=C/c3cccnc3)oc12
inactive: [4] 97 % of control | [9] 101 % of control | [10] 101 % of control

COc1cc2c(cc1O)C(=O)CCC2
inactive: dose: 50.0 mg/kg/injection, schedule: Q01DX009 (ip), vehicle: saline with Tween-80 107 % of control | [11] 96 % of control | [12] 93 % of control

COc1cc2c(c(O)c1OC)c(=O)c1ccccc1n2C
inactive: dose: 60.0 mg/kg/injection, schedule: Q01DX Z (ip), vehicle: carboxymethylcellulose (CMC) 103 % of control | dose: 120.0 mg/kg/injection, schedule: Q01DX Z (ip), vehicle: carboxymethylcellulose (CMC) 102 % of control | dose: 240.0 mg/kg/injection, schedule: Q01DX Z (ip), vehicle: carboxymethylcellulose (CMC) 97 % of control

COC(=O)c1ccc(OC(=O)Nc2ccccc2[N+](=O)[O-])cc1
inactive: [11] 97 % of control and 101 % of control | [13] 104 % of control and 110 % of control | [1] 107 % of control | [12] 96 % of control and 92 % of control | dose: 200.0 mg/kg/injection, schedule: Q04DX002 (ip), vehicle: saline with Tween-80 103 % of control and 104 % of control | [2] 113 % of control | dose: 400.0 mg/kg/injection, schedule: Q04DX002 (ip), vehicle: saline with Tween-80 94 % of control | [3] 101 % of control

CC(=O)N1CCc2nc3ccccc3cc21
inactive: dose: 37.5 mg/kg/injection, schedule: Q01DX009 (ip), vehicle: saline with Tween-80 96 % of control | dose: 37.5 mg/kg/injection, schedule: Q04DX003 (ip), vehicle: saline 104 % of control | dose: 75.0 mg/kg/injection, schedule: Q01DX001 (ip), vehicle: saline 95 % of control | dose: 75.0 mg/kg/injection, schedule: Q01DX009 (ip), vehicle: saline with Tween-80 94 % of control | dose: 75.0 mg/kg/injection, schedule: Q04DX003 (ip), vehicle: saline 104 % of control | dose: 150.0 mg/kg/injection, schedule: Q01DX001 (ip), vehicle: saline 101 % of control | dose: 150.0 mg/kg/injection, schedule: Q01DX009 (ip), vehicle: saline with Tween-80 88 % of control | dose: 150.0 mg/kg/injection, schedule: Q04DX003 (ip), vehicle: saline 106 % of control

O=Cc1c[nH]c(=O)[nH]c1=O
inactive: dose: 50.0 mg/kg/injection, schedule: Q01DX009 (ip), vehicle: saline 109 % of control | dose: 100.0 mg/kg/injection, schedule: Q01DX001 (ip), vehicle: Klucel (hydroxypropylcellulose) (HPC) 94 % of control | dose: 100.0 mg/kg/injection, schedule: Q01DX009 (ip), vehicle: saline 103 % of control | dose: 100.0 mg/kg/injection, schedule: Q04DX003 (ip), vehicle: saline 95 % of control | dose: 200.0 mg/kg/injection, schedule: Q01DX001 (ip), vehicle: Klucel (hydroxypropylcellulose) (HPC) 105 % of control | dose: 200.0 mg/kg/injection, schedule: Q01DX009 (ip), vehicle: saline 106 % of control | [5] 103 % of control | dose: 400.0 mg/kg/injection, schedule: Q01DX001 (ip), vehicle: Klucel (hydroxypropylcellulose) (HPC) 101 % of control | dose: 400.0 mg/kg/injection, schedule: Q04DX003 (ip), vehicle: saline 95 % of control

CC1(C)C2CCC(C2)C12CC(F)(F)C(F)(F)S2 (centres undefined)
inactive: dose: 12.5 mg/kg/injection, schedule: Q01DX009 (ip), vehicle: saline with Tween-80 97 % of control | dose: 25.0 mg/kg/injection, schedule: Q01DX009 (ip), vehicle: saline with Tween-80 100 % of control | dose: 25.0 mg/kg/injection, schedule: Q04DX003 (ip), vehicle: saline with Tween-80 101 % of control | dose: 50.0 mg/kg/injection, schedule: Q04DX003 (ip), vehicle: saline with Tween-80 101 % of control | [1] 103 % of control

O=C1c2ccccc2S(=O)(=O)N1CC(O)COc1ccc(Cl)cc1 (centres undefined)
inactive: [11] 93 % of control | [12] 102 % of control | dose: 400.0 mg/kg/injection, schedule: Q01DX009 (ip), vehicle: saline with Tween-80 101 % of control

CCCCCCCCCCCCOP(=S)(S)OCCCCCCCCCCCC.[Cd]
inactive: dose: 1.56 mg/kg/injection, schedule: Q01DX009 (ip), vehicle: saline with Tween-80 102 % of control | dose: 3.13 mg/kg/injection, schedule: Q01DX009 (ip), vehicle: saline with Tween-80 97 % of control | dose: 6.25 mg/kg/injection, schedule: Q01DX009 (ip), vehicle: saline with Tween-80 96 % of control | dose: 50.0 mg/kg/injection, schedule: Q04DX002 (ip), vehicle: saline with Tween-80 94 % of control | [13] 86 % of control and 91 % of control

CC1(C(O)CO)OCCO1 (centres undefined)
inactive: dose: 25.0 mg/kg/injection, schedule: Q04DX002 (ip), vehicle: saline 110 % of control | dose: 50.0 mg/kg/injection, schedule: Q04DX002 (ip), vehicle: saline 103 % of control | dose: 200.0 mg/kg/injection, schedule: Q04DX002 (ip), vehicle: saline 107 % of control and 110 % of control | dose: 400.0 mg/kg/injection, schedule: Q04DX002 (ip), vehicle: saline 117 % of control

CCOCCOC(=O)c1ccc(C(N)=NC2CCCCC2)cc1
inactive: [4] 100 % of control | [9] 102 % of control | [10] 90 % of control
